# According to the supplement of paper PMC8149375:
# Legend:
# Conditions in all cases: treatment: drug alone; 5 days
# CAKI-1 [1] = assay: minimum viability across doses, drug alone, relative to DMSO (fraction); higher = less growth inhibition
# Protocol: (§1)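 Primary HTS: 8 RCC cell lines treated with 8 doses (up to 10 uM) of each library drug alone for 5 days; viability read by CellTiter-Glo and normalised to DMSO. GI50 was fitted with XLfit (4-parameter), AUC is the area under the dose-response curve, and minimum viability is the lowest fraction of DMSO viability across doses.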
# ACHN [2] = assay: as above
# Protocol: as §1
# 769-P [3] = assay: as above
# Protocol: as §1
# 786-O [4] = assay: as above
# Protocol: as §1
# SN12C [5] = assay: as above
# Protocol: as §1
# TK-10 [6] = assay: as above
# Protocol: as §1
# A498 [7] = assay: as above
# Protocol: as §1
# UO-31 [8] = assay: as above
# Protocol: as §1
# CAKI-1 [9] = assay: AUC of dose-response viability curve, drug alone (arbitrary (AUC of normalised viability)); higher = less growth inhibition
# Protocol: as §1
# ACHN [10] = assay: as above
# Protocol: as §1
# 769-P [11] = assay: as above
# Protocol: as §1
# 786-O [12] = assay: as above
# Protocol: as §1
# SN12C [13] = assay: as above
# Protocol: as §1
# TK-10 [14] = assay: as above
# Protocol: as §1
# A498 [15] = assay: as above
# Protocol: as §1
# UO-31 [16] = assay: as above
# Protocol: as §1
# CAKI-1 [17] = assay: GI50, drug alone; higher = less potent
# Protocol: as §1
# ACHN [18] = assay: GI50, drug alone; higher = less potent
# Protocol: as §1
# 769-P [19] = assay: GI50, drug alone; higher = less potent
# Protocol: as §1
# 786-O [20] = assay: GI50, drug alone; higher = less potent
# Protocol: as §1
# SN12C [21] = assay: GI50, drug alone; higher = less potent
# Protocol: as §1
# TK-10 [22] = assay: GI50, drug alone; higher = less potent
# Protocol: as §1
# A498 [23] = assay: GI50, drug alone; higher = less potent
# Protocol: as §1
# UO-31 [24] = assay: GI50, drug alone; higher = less potent
# Protocol: as §1
SMILES,"GI50, drug alone (ACHN [18]) [µM]","GI50, drug alone (786-O [20]) [µM]",minimum viability across doses (CAKI-1 [1]),minimum viability across doses (ACHN [2]),minimum viability across doses (769-P [3]),minimum viability across doses (786-O [4]),minimum viability across doses (SN12C [5]),minimum viability across doses (TK-10 [6]),minimum viability across doses (A498 [7]),minimum viability across doses (UO-31 [8]),AUC of dose-response viability curve (CAKI-1 [9]),AUC of dose-response viability curve (ACHN [10]),AUC of dose-response viability curve (769-P [11]),AUC of dose-response viability curve (786-O [12]),AUC of dose-response viability curve (SN12C [13]),AUC of dose-response viability curve (TK-10 [14]),AUC of dose-response viability curve (A498 [15]),AUC of dose-response viability curve (UO-31 [16]),"GI50, drug alone (CAKI-1 [17]) [µM]","GI50, drug alone (769-P [19]) [µM]","GI50, drug alone (SN12C [21]) [µM]","GI50, drug alone (TK-10 [22]) [µM]","GI50, drug alone (A498 [23]) [µM]","GI50, drug alone (UO-31 [24]) [µM]"
Cc1cnc(Nc2ccc(OCCN3CCCC3)cc2)nc1Nc1cccc(S(=O)(=O)NC(C)(C)C)c1,0.662,1.9,0.00962,0.00347,0.0319,0.00721,0.00707,0.00422,0.0772,0.013,2.54,2.25,3.09,2.76,2.71,2.19,3.49,3.79,1.03,3.4,2.31,0.758,5.64,2.74
Nc1nc(N)c2nc(-c3cccc(O)c3)cnc2n1,5.79,2.47,0.275,0.35,0.971,0.0664,0.254,0.32,0.252,0.588,3.43,3.02,3.59,2.45,2.97,2.98,3.31,4.59,6.29,> 10,3.88,5.11,9.22,> 10
C[C@@H](N)[C@H]1CC[C@H](C(=O)Nc2ccncc2)CC1.Cl.Cl,> 10,> 10,0.859,0.908,0.895,0.802,0.909,0.887,0.87,0.96,3.45,3.73,3.37,3.36,3.55,3.46,3.58,4.59,> 10,> 10,> 10,> 10,> 10,> 10
CO[C@H]1C[C@H]2CC[C@@H](C)[C@@](O)(O2)C(=O)C(=O)N2CCCC[C@H]2C(=O)O[C@H]([C@H](C)C[C@@H]2CC[C@H](OP(C)(C)=O)[C@H](OC)C2)CC(=O)[C@H](C)/C=C(\C)[C@@H](O)[C@@H](OC)C(=O)[C@H](C)C[C@H](C)/C=C/C=C/C=C/1C (stereo in doubt) [Deforolimus (Ridaforolimus)],0.559,< 0.003,0.456,0.409,0.607,0.271,0.443,0.542,0.636,0.0878,2.1,1.98,2.66,1.24,2.23,2.42,2.6,0.965,1.07,> 10,0.454,> 10,> 10,0.00775
CC1(C)CCC(CN2CCN(c3ccc(C(=O)NS(=O)(=O)c4ccc(NCC5CCOCC5)c([N+](=O)[O-])c4)c(Oc4cnc5[nH]ccc5c4)c3)CC2)=C(c2ccc(Cl)cc2)C1 [ABT-199 (GDC-0199 )],> 10,< 0.003,0.846,0.847,0.88,0.442,0.821,0.617,0.915,1.02,3.28,3.16,3.47,2.19,3.19,3.06,3.73,3.98,> 10,> 10,> 10,> 10,> 10,> 10
CC1(C)CCC(c2ccc(Cl)cc2)=C(CN2CCN(c3ccc(C(=O)NS(=O)(=O)c4ccc(N[C@H](CCN5CCOCC5)CSc5ccccc5)c(S(=O)(=O)C(F)(F)F)c4)cc3)CC2)C1 [ABT-263 (Navitoclax)],2.28,0.181,0.603,0.0597,0.0787,0.00566,0.524,0.163,0.622,0.00527,3.41,2.51,3.02,1.72,3.21,2.39,3,2.31,> 10,3.17,> 10,1.07,> 10,0.784
CN(C)CC[C@H](CSc1ccccc1)Nc1ccc(S(=O)(=O)NC(=O)c2ccc(N3CCN(Cc4ccccc4-c4ccc(Cl)cc4)CC3)cc2)cc1[N+](=O)[O-] [ABT-737],5.69,0.501,0.952,0.206,0.305,0.00151,0.625,0.253,0.1,0.00414,3.76,2.88,3.47,1.66,3.25,2.43,3.25,4.03,> 10,9.18,> 10,4.57,5.36,3.08

# Now from value to compound, other results behind:
"GI50, drug alone (ACHN [18]) [µM]","GI50, drug alone (786-O [20]) [µM]",SMILES,minimum viability across doses (CAKI-1 [1]),minimum viability across doses (ACHN [2]),minimum viability across doses (769-P [3]),minimum viability across doses (786-O [4]),minimum viability across doses (SN12C [5]),minimum viability across doses (TK-10 [6]),minimum viability across doses (A498 [7]),minimum viability across doses (UO-31 [8]),AUC of dose-response viability curve (CAKI-1 [9]),AUC of dose-response viability curve (ACHN [10]),AUC of dose-response viability curve (769-P [11]),AUC of dose-response viability curve (786-O [12]),AUC of dose-response viability curve (SN12C [13]),AUC of dose-response viability curve (TK-10 [14]),AUC of dose-response viability curve (A498 [15]),AUC of dose-response viability curve (UO-31 [16]),"GI50, drug alone (CAKI-1 [17]) [µM]","GI50, drug alone (769-P [19]) [µM]","GI50, drug alone (SN12C [21]) [µM]","GI50, drug alone (TK-10 [22]) [µM]","GI50, drug alone (A498 [23]) [µM]","GI50, drug alone (UO-31 [24]) [µM]"
> 10,> 10,Cc1ccc(NC(=O)c2cccc(N(C)C)c2)cc1NC(=O)c1ccc(O)cc1,0.984,0.816,0.92,0.535,0.845,0.677,0.864,0.895,3.64,3.32,3.39,2.5,3.31,2.59,4.56,4.13,> 10,> 10,> 10,> 10,> 10,> 10
0.0587,0.0414,CNC(=O)Nc1ccc(-c2nc(N3CC4CCC(C3)O4)c3cnn(C4CCC5(CC4)OCCO5)c3n2)cc1,0.042,0.0487,0.101,0.00279,0.126,0.0905,0.09,0.00242,1.31,1.4,1.66,1.25,1.64,1.52,2.28,1.01,0.0567,0.122,0.0971,0.0812,0.23,0.0343
1.87,1.11,Nc1ccc(C(=O)Nc2cccc(-c3nc(N4CCOCC4)c4oc5ncccc5c4n3)c2)cn1,0.153,0.207,0.0884,0.00412,0.46,0.11,0.527,0.0163,2.63,2.63,3.04,2.4,3,2.64,4.39,5.57,1.19,3.14,8.23,1.7,> 10,8.08
> 10,> 10,C[C@@H]1CCN(C(=O)CC#N)C[C@@H]1N(C)c1ncnc2[nH]ccc12,0.98,0.893,0.988,0.804,0.935,0.806,0.909,0.876,3.66,3.3,3.63,3.54,3.63,3.14,3.8,4.6,> 10,> 10,> 10,> 10,> 10,> 10
3.42,2,COc1cc2c(Nc3ccc(NC(=O)c4ccccc4)cc3)ncnc2cc1OCCCN1CCOCC1,0.108,0.152,0.24,0.00931,0.537,0.243,0.722,0.175,3.03,2.57,3.12,2.52,2.89,2.86,4.49,4.2,2.63,5.72,> 10,4.2,> 10,9.01
> 10,> 10,CC1CCN(C(=O)CC#N)C[C@@H]1N(C)c1ncnc2[nH]ccc12.O=C(O)CC(O)(CC(=O)O)C(=O)O (stereo in doubt),0.918,0.771,0.938,0.614,0.854,0.797,0.817,0.897,3.73,3.18,3.66,2.72,3.23,3.16,3.54,4.05,> 10,> 10,> 10,> 10,> 10,> 10
> 10,> 10,O=C1NC(=O)C(=Cc2ccc(-c3ccc(F)cc3)o2)S1 (stereo in doubt),0.882,0.871,0.859,0.566,0.82,0.81,0.852,0.311,3.34,3.47,3.33,2.4,3.23,3.07,3.71,3.29,> 10,> 10,> 10,> 10,> 10,7.95
0.386,< 0.003,CO[C@H]1CC2CC[C@@H](C)[C@@](O)(O2)C(=O)C(=O)N2CCCC[C@H]2C(=O)O[C@H]([C@H](C)C[C@@H]2CCC(OC(=O)C(C)(CO)CO)[C@H](OC)C2)CC(=O)[C@H](C)/C=C(\C)[C@@H](O)[C@@H](OC)C(=O)[C@H](C)C[C@H](C)/C=C/C=C/C=C/1C (stereo in doubt) [Temsirolimus (Torisel)],0.433,0.407,0.62,0.294,0.578,0.486,0.641,0.299,2.15,2.03,2.8,1.31,2.31,2.39,2.57,1.58,1.27,> 10,> 10,3.9,> 10,0.0803
> 10,> 10,Cn1cnc(N)c2ncnc1-2 [3-Methyladenine],0.991,0.879,0.947,0.618,0.961,0.696,1.04,1.12,3.74,3.25,3.6,2.67,3.65,2.77,3.89,4.92,> 10,> 10,> 10,> 10,> 10,> 10
> 10,5.72,Cc1nc(NC(=O)N2CCC[C@H]2C(N)=O)sc1-c1csc(C(C)(C)C)n1 [A66],0.805,0.803,0.823,0.418,0.659,0.631,0.787,0.757,3.36,3.42,3.33,2.57,2.94,2.93,3.34,3.47,> 10,> 10,> 10,> 10,> 10,> 10
